Experiments:
[1] = target: recombinant human HDAC6 (Homo sapiens (Human), UniProt Q9UBN7); test: Enzymatic screening, HDAC6 inhibition (fluorogenic FdL_G substrate); type: biochemical
Protocol: (§1) For each test compound, 100× concentrated DMSO solutions at 8 doses were prepared and then diluted in assay buffer (25 mM Tris-HCl, pH 8, 130 mM NaCl, 0.05% Tween-20, 10% Glycerol) to obtain 5× concentrated solutions in relation to the final concentrations (typical final concentration range—6.4-200000 nM or 0.18-50000 nM, final DMSO content—1%). Then 10 μL solution of each test compound concentration were placed on a 96-well plate in triplicate and 15 μL of 3.33× concentrated enzyme solution in the assay buffer containing 3.33× concentrated BSA (final BSA concentration—2 mg/mL for HDAC4, HDAC5 and HDAC9 or 1 mg/mL for other isoforms) and in the case of HDAC6-3.33× concentrated TCEP (final TCEP concentration—200 μM) were added to each well. After a period of preincubation (incubation times and temperatures vary for different isoforms and are shown in table 1) 25 μL of solution containing the substrate were added. As substrate, FLUOR DE LYS® deacetylase substrate (Enzo Life Sciences, cat: BML-KI104, FdL), FLUOR DE LYS®-Green substrate (Enzo Life Sciences, cat: BML-KI572, FdL_G) or Boc-Lys(Tfa)-AMC (Bachem, cat: 4060676.005, Tfal)—2× concentrated solution in assay buffer were used. Following a reaction period (reaction times and temperatures vary for different isoforms and are reported in Table 1), 50 μL of the development solution consisting of concentrate FLUOR DE LYS® developer I (Enzo Life Sciences, ca: BML-KI105), diluted 200 times in buffer (50 mM Tris-HCl, pH 8, 137 mM NaCl, 2.7 mM KCl, 1 mM MgCl2) plus 2 μM TSA was added and, after 25 minutes at room temperature in the dark, using the Victor 1420 Multilabel Counter Perkin Elmer Wallac instrument, the fluorescence reading was carried out.

[2] = target: recombinant human HDAC1 (Homo sapiens (Human), UniProt Q13547); test: Enzymatic screening, HDAC1 inhibition (fluorogenic FdL_G substrate); type: biochemical
Chain of recombinant human HDAC1 (Q13547 whole entry): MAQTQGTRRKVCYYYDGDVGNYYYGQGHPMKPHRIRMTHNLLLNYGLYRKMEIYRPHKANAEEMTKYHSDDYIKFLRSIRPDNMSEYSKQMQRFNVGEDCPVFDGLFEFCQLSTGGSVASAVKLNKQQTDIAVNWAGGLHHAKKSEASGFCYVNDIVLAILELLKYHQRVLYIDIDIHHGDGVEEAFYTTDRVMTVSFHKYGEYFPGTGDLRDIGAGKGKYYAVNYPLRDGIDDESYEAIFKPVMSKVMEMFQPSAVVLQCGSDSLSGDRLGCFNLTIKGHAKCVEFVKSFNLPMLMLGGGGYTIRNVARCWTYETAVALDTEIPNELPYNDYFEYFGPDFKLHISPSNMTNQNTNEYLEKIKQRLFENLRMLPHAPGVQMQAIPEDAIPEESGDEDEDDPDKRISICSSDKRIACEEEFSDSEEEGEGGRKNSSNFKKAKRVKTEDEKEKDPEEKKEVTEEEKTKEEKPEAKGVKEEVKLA
Protocol: as §1

Chain of recombinant human HDAC6 (Q9UBN7 whole entry, canonical isoform): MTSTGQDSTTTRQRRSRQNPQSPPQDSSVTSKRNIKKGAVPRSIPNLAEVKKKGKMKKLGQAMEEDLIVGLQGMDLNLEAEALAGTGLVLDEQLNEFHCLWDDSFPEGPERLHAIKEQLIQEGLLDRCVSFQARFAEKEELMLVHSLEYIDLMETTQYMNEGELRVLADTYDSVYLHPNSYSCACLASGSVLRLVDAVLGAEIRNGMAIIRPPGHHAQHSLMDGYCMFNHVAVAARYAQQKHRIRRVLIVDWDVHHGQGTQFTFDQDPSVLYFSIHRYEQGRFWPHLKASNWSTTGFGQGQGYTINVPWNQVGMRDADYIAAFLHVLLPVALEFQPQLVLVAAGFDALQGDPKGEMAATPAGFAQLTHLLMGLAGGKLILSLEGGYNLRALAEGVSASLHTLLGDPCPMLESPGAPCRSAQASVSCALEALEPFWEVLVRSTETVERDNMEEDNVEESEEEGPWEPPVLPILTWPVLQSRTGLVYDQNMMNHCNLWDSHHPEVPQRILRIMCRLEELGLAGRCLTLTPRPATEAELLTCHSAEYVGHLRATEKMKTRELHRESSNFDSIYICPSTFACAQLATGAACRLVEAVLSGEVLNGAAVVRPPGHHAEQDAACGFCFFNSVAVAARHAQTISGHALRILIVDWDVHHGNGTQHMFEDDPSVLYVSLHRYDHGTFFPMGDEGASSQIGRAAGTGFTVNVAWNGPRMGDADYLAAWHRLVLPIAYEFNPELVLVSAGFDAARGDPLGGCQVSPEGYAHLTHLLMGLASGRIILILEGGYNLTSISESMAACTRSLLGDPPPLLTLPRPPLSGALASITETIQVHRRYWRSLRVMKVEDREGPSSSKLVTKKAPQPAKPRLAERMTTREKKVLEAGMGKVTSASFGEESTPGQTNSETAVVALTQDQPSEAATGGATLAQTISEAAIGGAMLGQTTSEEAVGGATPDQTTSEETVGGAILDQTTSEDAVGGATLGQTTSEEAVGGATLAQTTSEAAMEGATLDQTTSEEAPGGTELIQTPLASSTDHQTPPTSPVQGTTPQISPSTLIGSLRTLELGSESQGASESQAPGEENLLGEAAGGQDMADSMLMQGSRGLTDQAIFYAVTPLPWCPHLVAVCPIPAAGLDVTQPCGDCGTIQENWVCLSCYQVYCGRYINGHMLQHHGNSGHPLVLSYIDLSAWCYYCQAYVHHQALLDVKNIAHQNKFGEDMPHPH

Compound | IC50 [1] [nM] | IC50 [2] [nM]
Nc1ccc(-c2cn(C(CCNC(=O)C(F)F)c3ccc(-c4nnc(C(F)F)o4)cn3)nn2)cn1 (centres unmarked) [compd. 295, N-(3-(4-(6-aminopyridin-3-yl)-1H-1,2,3-triazol-1-yl)-3-(5-(5-(difluoromethyl)-1,3,4-oxadiazol-2-yl)pyridin-2-yl)propyl)-2,2-difluoroacetamide] | 32 | > 200000
NC(=O)c1cccc(-c2cn(Cc3ccc(-c4nnc(C(F)F)o4)cn3)cn2)c1 [compd. 305, 3-[1-[[5-[5-(difluoromethyl)-1,3,4-oxadiazol-2-yl]pyridin-2-yl]methyl]imidazol-4-yl]benzamide] | 23 | > 1e+06
Nc1nc2cc(-c3cn(Cc4ccc(-c5nnc(C(F)F)o5)cc4)cn3)ccc2o1 [compd. 309, 5-[1-[[4-[5-(difluoromethyl)-1,3,4-oxadiazol-2-yl]phenyl]methyl]imidazol-4-yl]-1,3-benzoxazol-2-amine] | 69 | > 1e+06
Nc1nc2ccc(-c3cc(Cc4ccc(-c5nnc(C(F)F)o5)cc4)on3)cc2s1 [compd. 366, 6-[5-[[4-[5-(difluoromethyl)-1,3,4-oxadiazol-2-yl]phenyl]methyl]-1,2-oxazol-3-yl]-1,3-benzothiazol-2-amine] | 297 | > 1e+06
Nc1nc2ccc(-n3cc(Cc4ccc(-c5nnc(C(F)F)o5)cc4)nn3)cc2s1 [compd. 377, 6-[4-[[4-[5-(difluoromethyl)-1,3,4-oxadiazol-2-yl]phenyl]methyl]triazol-1-yl]-1,3-benzothiazol-2-amine] | 370 | > 1e+06
Nc1ccc(-c2noc(Cc3ccc(-c4nnc(C(F)F)o4)cc3F)n2)cc1 [compd. 419, 4-(5-(4-(5-(difluoromethyl)-1,3,4-oxadiazol-2-yl)-2-fluorobenzyl)-1,2,4-oxadiazol-3-yl)aniline] | 64 | > 1e+06
O=C(Nc1cc(-c2nnn(Cc3ccc(-c4nnc(C(F)F)o4)cc3)n2)ccc1O)N1CCOCC1 [compound 25, N-(5-(2-(4-(5-(difluoromethyl)-1,3,4-oxadiazol-2-yl)benzyl)-2H-tetrazol-5-yl)-2-hydroxyphenyl)morpholine-4-carboxamide] | 7 | > 200000
O=C1Nc2ccc(-c3nnn(Cc4ccc(-c5nnc(C(F)F)o5)cn4)n3)cc2NC12CCCC2 [compound 27, 7′-(2-((5-(5-(difluoromethyl)-1,3,4-oxadiazol-2-yl)pyridin-2-yl)methyl)-2H-tetrazol-5-yl)-1′,4′-dihydro-3′H-spiro[cyclopentane-1,2′-quinoxalin]-3′-one] | 9 | > 200000
CN(C)C(=O)Nc1cc(-c2nnn(Cc3ccc(-c4nnc(C(F)F)o4)cc3)n2)ccc1O [compound 31, 3-(5-(2-(4-(5-(difluoromethyl)-1,3,4-oxadiazol-2-yl)benzyl)-2H-tetrazol-5-yl)-2-hydroxyphenyl)-1,1-dimethylurea] | 14 | > 200000
Nc1cc(-c2nnn(Cc3ccc(-c4nnc(C(F)F)o4)cc3)n2)ccc1O [compound 35, 2-amino-4-(2-(4-(5-(difluoromethyl)-1,3,4-oxadiazol-2-yl)benzyl)-2H-tetrazol-5-yl)phenol] | 16 | > 200000
O=C1NCc2ccc(-c3nnn(Cc4ccc(-c5nnc(C(F)F)o5)cc4F)n3)cc21 [compound 40, 6-(2-(4-(5-(difluoromethyl)-1,3,4-oxadiazol-2-yl)-2-fluorobenzyl)-2H-tetrazol-5-yl)isoindolin-1-one] | 19 | > 200000
Nc1ccc(-c2cn(Cc3c(F)cc(-c4nnc(C(F)F)o4)cc3F)nn2)cn1 [compound 42, 5-(1-(4-(5-(difluoromethyl)-1,3,4-oxadiazol-2-yl)-2,6-difluorobenzyl)-1H-1,2,3-triazol-4-yl)pyridin-2-amine] | 19 | > 200000
NCc1ccc(-c2nnn(Cc3ccc(-c4nnc(C(F)F)o4)cc3)n2)cc1 [compound 43, (4-(2-(4-(5-(difluoromethyl)-1,3,4-oxadiazol-2-yl)benzyl)-2H-tetrazol-5-yl)phenyl)methanamine] | 20 | 74900
Nc1ccc(-c2nnn(Cc3c(F)cc(-c4nnc(C(F)F)o4)cc3F)n2)cn1 [compound 45, 5-(2-(4-(5-(difluoromethyl)-1,3,4-oxadiazol-2-yl)-2,6-difluorobenzyl)-2H-tetrazol-5-yl)pyridin-2-amine] | 20 | > 200000
O=C(Nc1cccc(-c2cn(Cc3ccc(-c4nnc(C(F)F)o4)cc3F)nn2)c1)N1CCOCC1 [compound 47, N-(3-(1-(4-(5-(difluoromethyl)-1,3,4-oxadiazol-2-yl)-2-fluorobenzyl)-1H-1,2,3-triazol-4-yl)phenyl)morpholine-4-carboxamide] | 21 | > 30000
Nc1ccc(-c2cn(Cc3ccc(-c4nnc(C(F)F)o4)cc3F)nn2)cn1 [compound 48, 5-(1-(4-(5-(difluoromethyl)-1,3,4-oxadiazol-2-yl)-2-fluorobenzyl)-1H-1,2,3-triazol-4-yl)pyridin-2-amine] | 21 | > 30000
O=C1Nc2ccc(-c3cn(Cc4ccc(-c5nnc(C(F)F)o5)cc4)nn3)cc2C12CCNC2 (centres unmarked) [compound 49, 5-(1-(4-(5-(difluoromethyl)-1,3,4-oxadiazol-2-yl)benzyl)-1H-1,2,3-triazol-4-yl)spiro[indoline-3,3′-pyrrolidin]-2-one] | 21 | > 200000
NC(=O)c1cccc(-c2nnn(Cc3c(F)cc(-c4nnc(C(F)F)o4)cc3F)n2)c1 [compound 54, 3-(2-(4-(5-(difluoromethyl)-1,3,4-oxadiazol-2-yl)-2,6-difluorobenzyl)-2H-tetrazol-5-yl)benzamide] | 23 | > 200000
CN1CCN(c2cccc(-c3nnn(Cc4ccc(-c5nnc(C(F)F)o5)cc4)n3)c2)CC1 [compound 58, 2-(difluoromethyl)-5-(4-((5-(3-(4-methylpiperazin-1-yl)phenyl)-2H-tetrazol-2-yl)methyl)phenyl)-1,3,4-oxadiazole] | 25 | > 200000
O=C1Nc2ccc(-c3cn(Cc4ccc(-c5nnc(C(F)F)o5)cc4)nn3)cc2C12CCCC2 [compound 61, 5′-(1-(4-(5-(difluoromethyl)-1,3,4-oxadiazol-2-yl)benzyl)-1H-1,2,3-triazol-4-yl)spiro[cyclopentane-1,3′-indolin]-2′-one] | 27 | > 200000
CN1CCN(C(=O)Nc2cccc(-c3cn(Cc4c(F)cc(-c5nnc(C(F)F)o5)cc4F)nn3)c2)CC1 [compound 63, N-(3-(1-(4-(5-(difluoromethyl)-1,3,4-oxadiazol-2-yl)-2,6-difluorobenzyl)-1H-1,2,3-triazol-4-yl)phenyl)-4-methylpiperazine-1-carboxamide] | 28 | > 200000
CC(c1ccc(-c2nnc(C(F)F)o2)cn1)n1cc(-c2cccc(NC(=O)N3CCOCC3)c2)nn1 (centres unmarked) [compound 66, N-(3-(1-(1-(5-(5-(difluoromethyl)-1,3,4-oxadiazol-2-yl)pyridin-2-yl)ethyl)-1H-1,2,3-triazol-4-yl)phenyl)morpholine-4-carboxamide] | 28 | > 200000
